We go through 97 compounds from ChEMBL document CHEMBL3507680, “University of Dundee, Gates Library screen for HepG2 cell viability”.

SMILES strings stand for the structures.

A short description of the data set: Human HepG2 cell viability assay in 384 well format. It counts as toxicity, cell-based. The following applies: HepG2 cells, read-out: Inhibition. Set-up: dose 125 nL, time 70.5 hour; cytotoxicity at 70.5 h: concentration not given beside the values.

With `COc1ccccc1C1SCC(=O)Nc2c1c(=O)[nH]n2C1CCOCC1` (configuration not stated), the cytotoxicity at 70.5 h was -24.1%.

Turning to `Cc1cc(-c2nn3c(C4CCC4)nnc3s2)on1`, the cytotoxicity at 70.5 h was -7.88%.

On to `COCCn1cnc2ccc(NC(=O)c3c(C)noc3C)cc2c1=O`, for which the cytotoxicity at 70.5 h came to 30.3%.

On to `COc1ccc2c(ccn2CCC(=O)Nc2n[nH]c(C(C)C)n2)c1`, for which the cytotoxicity at 70.5 h came to 24.3%.

With `Cn1cnc2ccc(NC(=O)CCCn3cccn3)cc2c1=O`, the cytotoxicity at 70.5 h is -13.5%.

In the case of `O=C1CSC(c2ccc(F)c(Cl)c2)c2c(n(C3CCOCC3)[nH]c2=O)N1` (configuration not stated), the cytotoxicity at 70.5 h was 10.3%.

Take `CC(C)c1sc(Cl)nc1C(=O)N1CCN(Cc2ccccc2)CC1`: the cytotoxicity at 70.5 h came out at 27.3%.

For the compound `CCN1CCCC1CNC(=O)Cc1c(C)n[nH]c1-c1ccc(F)cc1` (configuration not stated), the cytotoxicity at 70.5 h was 22.5%.

`O=C(Cn1cnc2ccsc2c1=O)NCCCc1nnc2ccccn12`: the cytotoxicity at 70.5 h turned out to be 26.5%.

Consider `Cc1noc(C)c1C(=O)Nc1ccc2ncn(CC(C)C)c(=O)c2c1`, for which the cytotoxicity at 70.5 h was 50.5%.

In the case of `COc1cn(CC(=O)N2CCN(c3ccc(F)cc3)CC2)c(C)cc1=O`, the cytotoxicity at 70.5 h was 27.9%.

For the compound `COc1ccc(-c2n[nH]c(C)c2CC(=O)NCC2CCOCC2)cc1`, the cytotoxicity at 70.5 h is -10.5%.

As to `CC(C)n1ccc2c(NC(=O)c3n[nH]c4c3CCC4)cccc21`, the cytotoxicity at 70.5 h was determined as 7.25%.

Consider `CSc1ccc(C2SCC(=O)Nc3c2c(=O)[nH]n3C2CCOCC2)cc1` (configuration not stated), for which the cytotoxicity at 70.5 h was -23.9%.

In the case of `O=C(CCCn1cnc2ccccc2c1=O)Nc1nc[nH]n1`, the cytotoxicity at 70.5 h was determined as 22.9%.

Consider `CC(=O)NC1CCCc2c1[nH]c1ccc(F)cc21` (configuration not stated), for which the cytotoxicity at 70.5 h was determined as 29.6%.

On to `CC(C)Cc1nc(NC(=O)c2cc(-c3cccnc3)n[nH]2)n[nH]1`, for which the cytotoxicity at 70.5 h was -5.07%.

Take `O=C(c1cc2c(Cl)cccc2[nH]1)N1CCN(CCc2ccccn2)CC1`: the cytotoxicity at 70.5 h amounted to 24.6%.

Regarding `CC(=O)Nc1cccc2c1ccn2CC(=O)Nc1n[nH]c(CC(C)C)n1`, the cytotoxicity at 70.5 h is -5.98%.

On to `Cn1nc(-c2cccc(Cl)c2)c(Br)c1C(=O)O`, for which the cytotoxicity at 70.5 h was -16.9%.

Consider `Cn1/c(=N/C(=O)CSCC(=O)Nc2nccs2)sc2ccccc21`, for which the cytotoxicity at 70.5 h came out at 2.4%.

For `CN1CCOCC12CCN(Cc1nccs1)CC2`, the cytotoxicity at 70.5 h worked out at 3.99%.

On to `CC(C)NC(=O)c1nc2c(s1)CCCN2C(C)C`, for which the cytotoxicity at 70.5 h worked out at 7.18%.

Regarding `CCc1cnc(N2C[C@@H]3[C@@H](C(=O)NCC(C)C)CCS(=O)(=O)[C@@H]3C2)nc1`, the cytotoxicity at 70.5 h is -5.83%.

Turning to `CN1CCCc2sc(C(=O)NC3CC3)nc21`, the cytotoxicity at 70.5 h is -1.86%.

Turning to `Cn1nc(CN2CCCC2)c2c1CN(C(=O)c1ccncc1F)CC2`, the cytotoxicity at 70.5 h is -3.12%.

Turning to `CCc1cnc(N2C[C@@H]3[C@@H](C(=O)NC(C)C)CCS(=O)(=O)[C@@H]3C2)nc1`, the cytotoxicity at 70.5 h came to 0.524%.

`COCCN(C)C(=O)c1nc2c(s1)CCCN2C(=O)C1CC1`: the cytotoxicity at 70.5 h is -3.1%.

On to `COCCO[C@@H]1CCN(c2cc(OC)ncn2)[C@H]1Cc1cnn(C)c1`, for which the cytotoxicity at 70.5 h was -4.31%.

Consider `CCOCC1CC2(CCN(C(=O)C3CCSCC3)CC2)CO1` (configuration not stated), for which the cytotoxicity at 70.5 h was found to be 8.92%.

On to `CS(=O)(=O)N1CCO[C@@H]2CN(C(=O)COC3CCCC3)C[C@@H]2C1`, for which the cytotoxicity at 70.5 h came out at 7.96%.

For `O=C(c1ccco1)N1CCc2onc(CN3CCCC3)c2C1`, the cytotoxicity at 70.5 h stood at 7.25%.

With `CC(=O)N1CCCC2(CCN(Cc3ccc(Cl)c(F)c3)C2)C1` (configuration not stated), the cytotoxicity at 70.5 h was -3.79%.

In the case of `COCCNC(=O)c1nc2c(s1)CCCN2Cc1ccccc1`, the cytotoxicity at 70.5 h is -6.6%.

As to `COc1cc(N2CC[C@@H]3O[C@@H](c4ccncn4)C[C@H]3C2)ncn1`, the cytotoxicity at 70.5 h was found to be 7.96%.

Turning to `COc1cc(N2CC[C@@H]3O[C@@H](c4ccnc(C)n4)C[C@H]3C2)ncn1`, the cytotoxicity at 70.5 h was -4.55%.

In the case of `CN(C)C(=O)NCc1ncn2c1CN(S(C)(=O)=O)CCC2`, the cytotoxicity at 70.5 h is -4.56%.

As to `CCOCC1c2c(ncn2C(C)C)CCN1C(=O)C1CC1` (configuration not stated), the cytotoxicity at 70.5 h was -3.05%.

Consider `CCS(=O)(=O)N1CCC2(CN(C(=O)c3cn(C)cn3)C2)C1`, for which the cytotoxicity at 70.5 h turned out to be 8.36%.

Regarding `Cc1ccc(C(=O)N2C[C@@H]3CN(c4ncccn4)C[C@@H]3C2)cn1`, the cytotoxicity at 70.5 h was -9.68%.

For the compound `CCCS(=O)(=O)N1CCOC2(CCCN(c3ncc(F)cn3)C2)C1` (configuration not stated), the cytotoxicity at 70.5 h is -13.3%.

For `CCCS(=O)(=O)N1CCC2(CCCN(c3ncc(F)cn3)C2)C1` (configuration not stated), the cytotoxicity at 70.5 h was -6.01%.

Turning to `c1coc(CN2CCc3onc(Cn4ccnc4)c3C2)c1`, the cytotoxicity at 70.5 h is -2.36%.

For the compound `Cc1nc(N2CCCC2)nc2c1CN(C(=O)c1ccco1)CC2`, the cytotoxicity at 70.5 h is -4.28%.

Consider `Fc1cccc(N2CCc3ncnc(C4CC4)c3CC2)c1`, for which the cytotoxicity at 70.5 h is -4.85%.

With `Fc1cccc(N2CCc3ncnc(N4CCOCC4)c3CC2)c1`, the cytotoxicity at 70.5 h was -6.22%.

Take `CN(C)c1ncnc2c1CCN(c1cccc(F)c1)CC2`: the cytotoxicity at 70.5 h was -3.26%.

As for `O=C(O)c1nnn(Cc2ccc(F)cc2)c1-c1cccnc1`, the cytotoxicity at 70.5 h was -10.1%.

Regarding `Cc1ccc(Cl)cc1NC(=O)Cn1cc(C(=O)O)ccc1=O`, the cytotoxicity at 70.5 h came to 4.77%.

In the case of `Cc1c(Cl)cccc1NC(=O)Cn1cc(C(=O)O)ccc1=O`, the cytotoxicity at 70.5 h is -10.5%.

In the case of `COc1cc(C2C3=C(COC3=O)Nc3[nH]nc(C)c32)cc(Br)c1O` (configuration not stated), the cytotoxicity at 70.5 h is 2.06%.

With `O=c1c2cnc(N3CCOCC3)nc2ccn1-c1ccccc1`, the cytotoxicity at 70.5 h is -7.35%.

With `COc1cc(C2C3=C(COC3=O)Nc3[nH]nc(C)c32)cc2c1OCO2` (configuration not stated), the cytotoxicity at 70.5 h worked out at 9.37%.

Regarding `COc1ccc(C2SCC(=O)Nc3ccsc32)cc1OC` (configuration not stated), the cytotoxicity at 70.5 h was -11.5%.

With `COc1cc(CC(O)CC#N)c(OC)c2c1OCO2` (configuration not stated), the cytotoxicity at 70.5 h is -9.38%.

Regarding `CC(C)c1cc2c(O)nc(CSCC(=O)NCc3ccccn3)nc2s1`, the cytotoxicity at 70.5 h is -5.56%.

Regarding `O=C(NC1CC1)c1cc2c(nc1O)CC(c1cccs1)CC2=O` (configuration not stated), the cytotoxicity at 70.5 h is -11.9%.

`CCOC(=O)N1CCN(c2nc(N3CCCC3)c3ccccc3n2)CC1`: the cytotoxicity at 70.5 h was -6.36%.

Take `COc1cccc(-n2ccc3nc(N4CCCC4)ncc3c2=O)c1`: the cytotoxicity at 70.5 h is -4.05%.

In the case of `Cc1ccc(-n2ccc3nc(N4CCCC4)ncc3c2=O)cc1C`, the cytotoxicity at 70.5 h worked out at 9.54%.

For `CC(C)CCN1N=C(C(=O)N2CCCCCC2)S(=O)(=O)c2ccccc21`, the cytotoxicity at 70.5 h came to 21.7%.

Consider `CSc1nc2cc(C)n(CC(=O)Nc3nccs3)c2c(=O)n1CC(C)C`, for which the cytotoxicity at 70.5 h was -6.26%.

As for `COCCNC(=O)Cn1c(C)cc2nc(SC)n(CC(C)C)c(=O)c21`, the cytotoxicity at 70.5 h amounted to 2.11%.

On to `CCOC(=O)CSc1ccc(-c2nc(CC)no2)cn1`, for which the cytotoxicity at 70.5 h is -2.21%.

As for `O=c1[nH]c2nc(NCC3CCCO3)ncc2c(=O)n1-c1cccc(F)c1` (configuration not stated), the cytotoxicity at 70.5 h amounted to 4.03%.

With `O=c1[nH]c2nc(NC3CC3)ncc2c(=O)n1-c1ccc(F)cc1`, the cytotoxicity at 70.5 h was 0.679%.

`O=c1[nH]nc2nc(N3CCCC3)ccn12`: the cytotoxicity at 70.5 h is 5.61%.

Take `COc1cc(Cl)c(C)cc1-n1nnc(C(=O)O)c1C`: the cytotoxicity at 70.5 h was -2%.

`COc1ccccc1OCC(=O)n1nc(C)c(C)c1C`: the cytotoxicity at 70.5 h is 6.31%.

Turning to `CN(C)C(=O)N1CCC2(CC1)CNc1ccc(F)cc12`, the cytotoxicity at 70.5 h is -2.37%.

As for `O=C(C1CC1)N1CCC2(CC1)CNc1ccc(F)cc12`, the cytotoxicity at 70.5 h was -10.9%.

Regarding `CCOC(=O)N1CCN(c2nc(N)c3ccccc3n2)CC1`, the cytotoxicity at 70.5 h was -7.74%.

Take `CN1C(=O)CCCC12CCCN(Cc1nccs1)C2` (configuration not stated): the cytotoxicity at 70.5 h came out at 9.31%.

With `O=C([C@@H]1COC[C@H]2CN(c3ccncn3)C[C@H]21)N1CCCCO1`, the cytotoxicity at 70.5 h was -6.51%.

For the compound `Cn1nccc1-c1nc2c(cc1C(=O)O)CCN(C(=O)C1CC1)CC2`, the cytotoxicity at 70.5 h is -2.87%.

As for `O=C(c1ccccn1)N1CC[C@H]2[C@H]1CCN2S(=O)(=O)C1CC1`, the cytotoxicity at 70.5 h is 6.25%.

As to `C1CN(CC2CCOCC2)Cc2c(COCC3CC3)nnn2C1`, the cytotoxicity at 70.5 h was -7.76%.

Consider `CCCS(=O)(=O)N1C[C@@H]2CN(Cc3ccco3)CCO[C@@H]2C1`, for which the cytotoxicity at 70.5 h was -2.23%.

As for `c1cnc(N2CCOCC3(CN(Cc4cc[nH]n4)CCO3)C2)nc1` (configuration not stated), the cytotoxicity at 70.5 h was determined as 7.31%.

Take `CCC1=N[C@@]2(CC[C@@H]3CN(Cc4ccccc4F)C[C@@H]32)C(=O)N1`: the cytotoxicity at 70.5 h is -6.13%.

Regarding `CC(C)NC1CCc2c(ccc(=O)n2CCN2CCCC2=O)C1` (configuration not stated), the cytotoxicity at 70.5 h was -4.58%.

Turning to `O=C(CO)N1CCC(F)(F)C2(CCN(c3ccccc3)C2)C1` (configuration not stated), the cytotoxicity at 70.5 h came to 1.4%.

For `CN1C[C@@H]2CN(C(=O)NCc3cccc(F)c3)CCC[C@]2(C(=O)O)C1`, the cytotoxicity at 70.5 h amounted to 8.66%.

Take `Cc1cnc(N2C[C@H]3CCN(CC4CC4)C[C@H]3C2)nc1`: the cytotoxicity at 70.5 h was determined as 9.39%.

Take `Cn1cnc2c1C(C(=O)N1CCCC1)N(CC1CC1)CC2` (configuration not stated): the cytotoxicity at 70.5 h is -9.9%.

`CC(=O)N1CCc2ncn(C)c2C1C(=O)N1CCCC1` (configuration not stated): the cytotoxicity at 70.5 h was -6.96%.

Turning to `CC(C)n1cnc2c1C(C(=O)N1CCCC1)N(CC1CC1)CC2` (configuration not stated), the cytotoxicity at 70.5 h was -1.74%.

As to `COCCC(=O)N1CCN(CC(C)C)c2nc(C)ccc2C1`, the cytotoxicity at 70.5 h is -4%.

On to `c1ccn(Cc2noc3c2CN(Cc2ccsc2)CC3)c1`, for which the cytotoxicity at 70.5 h is -6.24%.

On to `c1coc(CN2CCc3onc(Cn4cccc4)c3C2)c1`, for which the cytotoxicity at 70.5 h was -6.52%.

For the compound `Cc1nc2c(cc1C(=O)O)CCN(CC1CC1)CC2`, the cytotoxicity at 70.5 h is -3.49%.

In the case of `O=C(O)CN1CCC(F)(F)C2(CCN(c3ccccc3)C2)C1` (configuration not stated), the cytotoxicity at 70.5 h is -5.61%.

On to `CCOCC1c2c(ncn2C(C)C)CCN1C(C)C` (configuration not stated), for which the cytotoxicity at 70.5 h was -7.26%.

In the case of `CC(=O)N1CCn2c(-c3ccccc3)cnc2C12CCNCC2`, the cytotoxicity at 70.5 h was -6.82%.

Turning to `Cc1ccc2c(n1)N(CC(C)C)CCN(C(=O)Cc1ccccn1)C2`, the cytotoxicity at 70.5 h is -4.9%.

With `CN(C)C[C@@H]1C[C@@H]2CN(c3ncc(F)cn3)CC[C@@H]2N1C`, the cytotoxicity at 70.5 h was -3.26%.

On to `Cc1cccc(CN2C[C@@H]3CN(Cc4ccoc4)CCO[C@@H]3C2)n1`, for which the cytotoxicity at 70.5 h is -1.63%.
